Test results from patent US7074789B2, “Kinase inhibitors” (Amgen Inc., priority 1999, dated 2006).

What was measured:
Assay type in all cases: biochemical
Lck = molecular target: T1, Lck (Homo sapiens, UniProt P06239); test: Kinase inhibition assay (33P transfer), Lck; conditions: read-out: Lck-1
T1 construct: Kinases are expressed as either kinase domains or full length constructs; made in house
Method in brief: (§1)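 Enzyme activity is taken as the amount of 33PO4 moved from ATP onto poly(Glu, Tyr) 4:1 or poly(Arg, Ser) 3:1 fixed to the plate surface. Unbound label is removed with 0.5% phosphoric acid before scintillation counting.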

Lyn = molecular target: T2, Lyn (Homo sapiens, UniProt P07948); test: Kinase inhibition assay (33P transfer), Lyn; conditions: Table 6, Lyn-1 kinase inhibition class
T2 construct: Kinases are expressed as either kinase domains or full length constructs; made in house
Method in brief: (§2)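 IC50: inhibitor concentration lowering 33P incorporation into immobilised substrate by 50%. Label transferred from ATP to poly(Glu,Tyr) 4:1 or poly(Arg,Ser) 3:1 is measured after a 0.5% phosphoric acid wash by liquid scintillation.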

Src = molecular target: T3, Src (Homo sapiens, UniProt P12931); test: Kinase inhibition assay (33P transfer), Src; conditions: Table 6, Src-1 kinase inhibition class
T3 construct: Kinases are expressed as either kinase domains or full length constructs; made in house
Method in brief: as §2

Fyn = molecular target: T4, Fyn (Homo sapiens, UniProt P06241); test: Kinase inhibition assay (33P transfer), Fyn; conditions: read-out: Fyn-1
T4 construct: Kinases are expressed as either kinase domains or full length constructs; made in house
Method in brief: as §2

Zap-70 = molecular target: T5, Zap-70 (Homo sapiens, UniProt P43403); test: Kinase inhibition assay (33P transfer), Zap-70; conditions: read-out: Zap-1
T5 construct: Kinases are expressed as either kinase domains or full length constructs; made in house
T5 sequence (P43403 1-619): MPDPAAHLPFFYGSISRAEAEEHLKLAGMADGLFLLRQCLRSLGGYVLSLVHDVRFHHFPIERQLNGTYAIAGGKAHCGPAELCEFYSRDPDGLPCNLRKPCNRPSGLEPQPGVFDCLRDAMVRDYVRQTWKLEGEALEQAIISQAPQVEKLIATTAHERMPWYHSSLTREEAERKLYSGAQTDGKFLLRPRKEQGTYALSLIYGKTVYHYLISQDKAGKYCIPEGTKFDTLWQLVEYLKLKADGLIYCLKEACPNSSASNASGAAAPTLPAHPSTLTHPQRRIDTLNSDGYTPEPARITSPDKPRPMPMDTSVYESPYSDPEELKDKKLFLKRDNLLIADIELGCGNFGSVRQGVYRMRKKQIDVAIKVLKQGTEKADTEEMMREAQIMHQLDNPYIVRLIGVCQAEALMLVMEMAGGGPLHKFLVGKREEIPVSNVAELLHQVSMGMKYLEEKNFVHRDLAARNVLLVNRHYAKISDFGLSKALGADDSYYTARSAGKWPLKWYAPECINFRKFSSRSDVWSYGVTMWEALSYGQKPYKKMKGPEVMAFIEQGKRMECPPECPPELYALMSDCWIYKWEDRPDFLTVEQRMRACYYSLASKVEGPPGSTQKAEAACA
Method in brief: as §1

Itk = molecular target: T6, Itk (Homo sapiens, UniProt Q08881); test: Kinase inhibition assay (33P transfer), Itk; conditions: read-out: Itk-1
T6 construct: Kinases are expressed as either kinase domains or full length constructs; made in house
T6 sequence (Q08881 1-620): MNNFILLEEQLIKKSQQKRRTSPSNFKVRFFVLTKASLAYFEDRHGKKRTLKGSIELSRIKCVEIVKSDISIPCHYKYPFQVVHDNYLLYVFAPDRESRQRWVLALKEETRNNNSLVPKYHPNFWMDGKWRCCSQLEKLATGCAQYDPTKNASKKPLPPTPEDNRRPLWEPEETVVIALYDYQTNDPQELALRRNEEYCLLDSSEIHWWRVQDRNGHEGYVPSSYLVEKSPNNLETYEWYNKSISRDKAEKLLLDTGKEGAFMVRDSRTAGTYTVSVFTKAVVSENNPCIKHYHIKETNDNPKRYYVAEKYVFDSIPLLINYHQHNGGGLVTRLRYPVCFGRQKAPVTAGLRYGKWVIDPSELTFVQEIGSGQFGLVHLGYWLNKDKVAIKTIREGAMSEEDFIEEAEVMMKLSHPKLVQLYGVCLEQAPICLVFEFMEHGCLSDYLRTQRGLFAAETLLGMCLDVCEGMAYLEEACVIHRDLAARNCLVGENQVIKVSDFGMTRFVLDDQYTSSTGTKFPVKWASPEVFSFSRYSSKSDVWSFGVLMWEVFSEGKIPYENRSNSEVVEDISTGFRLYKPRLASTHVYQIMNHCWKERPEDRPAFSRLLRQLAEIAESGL
Method in brief: as §2

EGFR = molecular target: T7, EGFR (Homo sapiens, UniProt P00533); test: Kinase inhibition assay (33P transfer), EGFR; conditions: Table 2, kinase inhibition class; read-out: EGFR-1
T7 construct: Kinases are expressed as either kinase domains or full length constructs; made in house
Method in brief: as §2

ErbB2 = molecular target: T8, ErbB2 (Homo sapiens, UniProt P04626); test: Kinase inhibition assay (33P transfer), ErbB2; conditions: read-out: ErbB2-2
T8 construct: Kinases are expressed as either kinase domains or full length constructs; made in house
Method in brief: as §2

Kdr = molecular target: T9, Kdr (Homo sapiens, UniProt P35968); test: Kinase inhibition assay (33P transfer), Kdr; conditions: read-out: KDR-1
T9 construct: Kinases are expressed as either kinase domains or full length constructs; made in house
Method in brief: as §1

Flt-1 = molecular target: T10, Flt-1 (Homo sapiens, UniProt P17948); test: Kinase inhibition assay (33P transfer), Flt-1
T10 construct: Kinases are expressed as either kinase domains or full length constructs; made in house
Method in brief: as §2

Tek = molecular target: T11, Tek (Homo sapiens, UniProt Q02763); test: Kinase inhibition assay (33P transfer), Tek; conditions: read-out: Tek-1
T11 construct: Kinases are expressed as either kinase domains or full length constructs; made in house
Method in brief: as §2

c-Met = molecular target: T12, c-Met (Homo sapiens, UniProt P08581); test: Kinase inhibition assay (33P transfer), c-Met; conditions: Table 2, kinase inhibition class; read-out: Met-1
T12 construct: Kinases are expressed as either kinase domains or full length constructs; made in house
Method in brief: as §2

AKT = molecular target: T13, AKT (Homo sapiens, UniProt Q9Y243); test: Kinase inhibition assay (33P transfer), AKT; conditions: Table 2, kinase inhibition class; read-out: AKT3-1
T13 construct: Kinases are expressed as either kinase domains or full length constructs; made in house
Method in brief: as §1

IGFR-1 = molecular target: T14, IGFR-1 (Homo sapiens, UniProt P08069); test: Kinase inhibition assay, IGFR-1 (Table 2); conditions: Table 2, kinase inhibition class
T14 construct: Kinases are expressed as either kinase domains or full length constructs; made in house

PDGFRB = molecular target: T15, PDGFRB (Homo sapiens, UniProt P09619); test: Kinase inhibition assay (33P transfer), PDGFRB; conditions: read-out: PDGFRB-1
T15 construct: Kinases are expressed as either kinase domains or full length constructs; made in house

Hck-1 = molecular target: T16, Hck-1 (Homo sapiens, UniProt P08631); test: Kinase inhibition assay (33P transfer), Hck; conditions: Table 6, Hck-1 kinase inhibition class
T16 construct: Kinases are expressed as either kinase domains or full length constructs; made in house

ErbB4 = molecular target: T17, ErbB4 (Homo sapiens, UniProt Q15303); test: Kinase inhibition assay (33P transfer), ErbB4; conditions: read-out: ErbB4-1
T17 construct: Kinases are expressed as either kinase domains or full length constructs; made in house

Ret-1 = molecular target: T18, Ret-1 (Homo sapiens, UniProt P07949); test: Kinase inhibition assay (33P transfer), Ret; conditions: Table 6, Ret-1 kinase inhibition class
T18 construct: Kinases are expressed as either kinase domains or full length constructs; made in house

FGFR1 = molecular target: T19, FGFR1 (Homo sapiens, UniProt P11362); test: Kinase inhibition assay (33P transfer), FGFR1; conditions: read-out: FGFR1-1
T19 construct: Kinases are expressed as either kinase domains or full length constructs; made in house

T14 sequence (P08069 31-1367): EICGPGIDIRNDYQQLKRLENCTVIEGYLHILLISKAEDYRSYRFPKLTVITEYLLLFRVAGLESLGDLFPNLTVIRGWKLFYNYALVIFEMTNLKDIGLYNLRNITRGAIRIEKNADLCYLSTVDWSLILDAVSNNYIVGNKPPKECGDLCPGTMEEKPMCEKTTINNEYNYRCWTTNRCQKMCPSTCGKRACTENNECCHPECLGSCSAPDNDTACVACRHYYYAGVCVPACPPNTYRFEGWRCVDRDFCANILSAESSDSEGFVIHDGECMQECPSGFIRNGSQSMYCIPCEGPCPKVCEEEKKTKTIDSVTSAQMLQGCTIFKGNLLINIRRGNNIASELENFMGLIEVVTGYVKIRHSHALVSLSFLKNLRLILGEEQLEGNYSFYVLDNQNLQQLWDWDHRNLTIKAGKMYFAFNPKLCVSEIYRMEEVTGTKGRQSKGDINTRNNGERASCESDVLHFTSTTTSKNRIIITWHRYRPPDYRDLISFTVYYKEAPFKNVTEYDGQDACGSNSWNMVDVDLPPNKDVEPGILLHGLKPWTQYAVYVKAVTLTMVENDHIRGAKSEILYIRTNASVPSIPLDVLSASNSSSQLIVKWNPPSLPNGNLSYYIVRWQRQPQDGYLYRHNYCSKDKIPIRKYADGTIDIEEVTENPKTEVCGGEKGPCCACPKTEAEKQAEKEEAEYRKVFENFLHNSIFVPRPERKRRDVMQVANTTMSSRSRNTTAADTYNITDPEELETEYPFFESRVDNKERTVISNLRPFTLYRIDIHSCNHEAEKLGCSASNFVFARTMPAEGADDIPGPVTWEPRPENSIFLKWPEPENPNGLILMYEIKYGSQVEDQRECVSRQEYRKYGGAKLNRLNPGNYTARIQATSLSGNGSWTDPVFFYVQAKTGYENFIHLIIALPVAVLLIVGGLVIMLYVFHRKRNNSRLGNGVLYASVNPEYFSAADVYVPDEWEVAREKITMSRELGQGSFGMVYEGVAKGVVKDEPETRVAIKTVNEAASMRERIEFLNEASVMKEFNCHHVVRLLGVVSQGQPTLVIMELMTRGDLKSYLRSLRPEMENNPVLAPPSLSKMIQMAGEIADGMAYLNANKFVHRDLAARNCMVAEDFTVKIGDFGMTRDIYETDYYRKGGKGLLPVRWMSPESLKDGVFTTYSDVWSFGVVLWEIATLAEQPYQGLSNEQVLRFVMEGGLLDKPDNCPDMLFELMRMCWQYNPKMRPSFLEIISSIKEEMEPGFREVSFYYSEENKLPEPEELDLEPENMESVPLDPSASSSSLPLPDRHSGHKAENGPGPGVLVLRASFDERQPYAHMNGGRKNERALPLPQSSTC
T17 sequence (Q15303 26-1308, species assumed): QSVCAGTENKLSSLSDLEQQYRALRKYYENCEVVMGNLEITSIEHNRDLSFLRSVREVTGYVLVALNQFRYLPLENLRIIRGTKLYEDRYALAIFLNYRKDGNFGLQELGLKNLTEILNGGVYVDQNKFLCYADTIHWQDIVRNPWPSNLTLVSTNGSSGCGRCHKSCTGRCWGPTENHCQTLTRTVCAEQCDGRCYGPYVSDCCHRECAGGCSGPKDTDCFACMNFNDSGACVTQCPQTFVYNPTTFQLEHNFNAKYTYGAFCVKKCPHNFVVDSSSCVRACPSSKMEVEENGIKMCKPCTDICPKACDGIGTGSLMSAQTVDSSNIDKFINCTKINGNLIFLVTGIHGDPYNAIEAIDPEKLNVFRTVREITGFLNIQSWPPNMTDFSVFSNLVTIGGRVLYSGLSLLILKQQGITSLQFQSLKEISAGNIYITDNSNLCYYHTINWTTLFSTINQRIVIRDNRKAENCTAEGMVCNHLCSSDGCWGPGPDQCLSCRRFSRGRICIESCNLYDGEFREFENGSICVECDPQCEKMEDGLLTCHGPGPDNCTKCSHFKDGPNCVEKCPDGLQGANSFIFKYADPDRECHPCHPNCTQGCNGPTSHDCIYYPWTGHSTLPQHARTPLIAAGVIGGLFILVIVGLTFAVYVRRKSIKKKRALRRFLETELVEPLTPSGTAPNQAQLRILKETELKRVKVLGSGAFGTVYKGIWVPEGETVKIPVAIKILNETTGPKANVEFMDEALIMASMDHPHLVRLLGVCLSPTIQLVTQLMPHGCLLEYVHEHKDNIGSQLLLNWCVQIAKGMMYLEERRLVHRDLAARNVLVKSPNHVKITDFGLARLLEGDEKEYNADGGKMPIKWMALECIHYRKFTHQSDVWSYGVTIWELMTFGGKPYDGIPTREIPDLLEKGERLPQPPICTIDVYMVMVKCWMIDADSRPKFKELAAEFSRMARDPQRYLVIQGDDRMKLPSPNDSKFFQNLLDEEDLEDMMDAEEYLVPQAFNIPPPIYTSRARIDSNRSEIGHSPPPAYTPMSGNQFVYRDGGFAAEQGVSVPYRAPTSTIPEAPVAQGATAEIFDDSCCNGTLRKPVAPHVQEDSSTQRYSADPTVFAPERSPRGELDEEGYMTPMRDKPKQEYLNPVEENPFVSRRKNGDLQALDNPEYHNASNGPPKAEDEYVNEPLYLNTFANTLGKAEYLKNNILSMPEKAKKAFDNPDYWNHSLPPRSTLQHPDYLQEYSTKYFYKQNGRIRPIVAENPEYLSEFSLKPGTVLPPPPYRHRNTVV
T11 sequence (Q02763 23-1124, species assumed): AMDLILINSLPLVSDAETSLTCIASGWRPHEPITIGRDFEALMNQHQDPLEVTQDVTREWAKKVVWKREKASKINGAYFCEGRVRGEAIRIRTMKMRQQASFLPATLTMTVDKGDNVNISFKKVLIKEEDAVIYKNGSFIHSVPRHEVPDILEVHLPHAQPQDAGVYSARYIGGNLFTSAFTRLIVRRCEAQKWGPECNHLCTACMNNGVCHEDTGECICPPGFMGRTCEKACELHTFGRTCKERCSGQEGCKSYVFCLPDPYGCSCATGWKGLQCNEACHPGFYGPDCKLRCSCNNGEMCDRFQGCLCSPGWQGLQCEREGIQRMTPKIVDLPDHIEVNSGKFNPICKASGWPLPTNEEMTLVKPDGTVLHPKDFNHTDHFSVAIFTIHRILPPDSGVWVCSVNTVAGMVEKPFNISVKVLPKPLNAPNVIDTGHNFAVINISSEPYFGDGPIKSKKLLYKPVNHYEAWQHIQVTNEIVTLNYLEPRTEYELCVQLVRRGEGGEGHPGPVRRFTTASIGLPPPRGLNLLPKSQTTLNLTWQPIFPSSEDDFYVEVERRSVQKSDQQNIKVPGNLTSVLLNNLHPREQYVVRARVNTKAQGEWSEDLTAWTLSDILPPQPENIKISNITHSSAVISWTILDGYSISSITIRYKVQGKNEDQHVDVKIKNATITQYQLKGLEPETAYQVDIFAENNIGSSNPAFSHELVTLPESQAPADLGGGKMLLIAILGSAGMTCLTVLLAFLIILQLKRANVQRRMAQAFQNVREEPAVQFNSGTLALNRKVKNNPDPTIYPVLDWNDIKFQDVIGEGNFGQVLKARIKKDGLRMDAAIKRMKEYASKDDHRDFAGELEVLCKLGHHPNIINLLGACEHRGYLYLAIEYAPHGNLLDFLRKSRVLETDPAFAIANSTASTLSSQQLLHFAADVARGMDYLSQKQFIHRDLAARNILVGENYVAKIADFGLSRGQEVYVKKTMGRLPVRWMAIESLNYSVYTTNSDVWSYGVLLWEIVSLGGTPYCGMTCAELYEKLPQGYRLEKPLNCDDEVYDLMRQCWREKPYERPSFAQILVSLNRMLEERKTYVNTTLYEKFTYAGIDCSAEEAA
T7 sequence (P00533 25-1210, species assumed): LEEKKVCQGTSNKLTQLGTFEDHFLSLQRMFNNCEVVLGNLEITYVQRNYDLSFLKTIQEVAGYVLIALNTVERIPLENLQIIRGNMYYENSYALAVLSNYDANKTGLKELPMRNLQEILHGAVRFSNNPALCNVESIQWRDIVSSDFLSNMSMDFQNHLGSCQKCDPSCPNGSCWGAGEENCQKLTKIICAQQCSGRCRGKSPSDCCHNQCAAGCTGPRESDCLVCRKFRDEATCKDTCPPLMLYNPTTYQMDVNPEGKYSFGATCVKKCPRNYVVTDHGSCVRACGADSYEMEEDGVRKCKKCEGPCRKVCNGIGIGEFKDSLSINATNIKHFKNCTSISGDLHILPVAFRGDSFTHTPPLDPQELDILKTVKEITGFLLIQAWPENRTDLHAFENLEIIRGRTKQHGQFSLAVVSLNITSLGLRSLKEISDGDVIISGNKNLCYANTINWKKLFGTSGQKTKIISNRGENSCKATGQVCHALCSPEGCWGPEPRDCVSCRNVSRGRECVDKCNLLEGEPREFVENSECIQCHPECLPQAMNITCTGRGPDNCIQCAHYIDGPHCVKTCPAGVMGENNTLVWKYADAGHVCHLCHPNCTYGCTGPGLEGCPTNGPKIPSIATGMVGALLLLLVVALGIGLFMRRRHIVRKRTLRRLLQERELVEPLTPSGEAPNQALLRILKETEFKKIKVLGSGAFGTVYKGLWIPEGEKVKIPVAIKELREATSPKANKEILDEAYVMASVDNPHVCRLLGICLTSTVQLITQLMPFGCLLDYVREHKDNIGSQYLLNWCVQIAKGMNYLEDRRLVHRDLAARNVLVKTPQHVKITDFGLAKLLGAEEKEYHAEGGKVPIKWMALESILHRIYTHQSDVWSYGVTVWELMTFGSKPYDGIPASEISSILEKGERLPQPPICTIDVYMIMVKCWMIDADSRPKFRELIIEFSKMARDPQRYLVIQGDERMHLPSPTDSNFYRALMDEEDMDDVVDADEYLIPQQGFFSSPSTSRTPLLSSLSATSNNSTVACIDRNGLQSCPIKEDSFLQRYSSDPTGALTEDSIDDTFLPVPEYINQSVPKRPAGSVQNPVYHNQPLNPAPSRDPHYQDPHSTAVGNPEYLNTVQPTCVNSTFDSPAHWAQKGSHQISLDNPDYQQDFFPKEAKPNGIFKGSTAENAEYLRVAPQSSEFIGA

| Compound | IC50 (Lck) [µM] | IC50 (Lyn) [µM] | IC50 (Src) [µM] | IC50 (Fyn) [µM] | IC50 (Zap-70) [µM] | IC50 (Itk) [µM] | IC50 (EGFR) [µM] | IC50 (ErbB2) [µM] | IC50 (Kdr) [µM] | IC50 (Flt-1) [µM] | IC50 (Tek) [µM] | IC50 (c-Met) [µM] | IC50 (AKT) [µM] | IC50 (IGFR-1) [µM] | IC50 (PDGFRB) [µM] | IC50 (Hck-1) [µM] | IC50 (ErbB4) [µM] | IC50 (Ret-1) [µM] | IC50 (FGFR1) [µM] |
| --- | --- | --- | --- | --- | --- | --- | --- | --- | --- | --- | --- | --- | --- | --- | --- | --- | --- | --- | --- |
| COc1cc(Nc2ncnc(Nc3ccc(Cl)c4ccccc34)n2)cc(OC)c1OC [Compound 1031] | 0.913 to 5.48 | 0.913 to 5.48 | 5.48 to 7.99 | > 10.3 | > 10.3 | > 10.3 | < 0.913 | 0.913 to 5.48 | 5.48 to 7.99 | > 10.3 | > 10.3 | > 10.3 | > 10.3 | 0.913 to 5.48 | < 0.913 | > 10.3 | > 10.3 | 0.913 to 5.48 | 0.913 to 5.48 |
| C=CCNc1ncccc1-c1ncnc(Nc2cc(OC)c(OC)c(OC)c2)n1 [Compound 1076] | < 1.01 | > 11.4 | 1.01 to 6.08 | 1.01 to 6.08 | > 11.4 | > 11.4 | > 11.4 | > 11.4 | < 1.01 | 1.01 to 6.08 | > 11.4 | > 11.4 | > 11.4 | > 11.4 | < 1.01 | > 11.4 | > 11.4 | < 1.01 | 1.01 to 6.08 |
| COc1cc(Nc2ncnc(Nc3cccc4ccccc34)n2)cc(OCCN2CCOCC2)c1OC [Compound 953] | < 0.796 | < 0.796 | < 0.796 | < 0.796 | > 8.95 | 6.96 to 8.95 | < 0.796 | 0.796 to 4.78 | 0.796 to 4.78 | 0.796 to 4.78 | 0.796 to 4.78 | > 8.95 | > 8.95 | 4.78 to 6.96 | < 0.796 | 0.796 to 4.78 | 0.796 to 4.78 | 0.796 to 4.78 | 0.796 to 4.78 |

Other lines, results leading:

| IC50 (Lck) [µM] | IC50 (Lyn) [µM] | IC50 (Src) [µM] | IC50 (Fyn) [µM] | IC50 (Zap-70) [µM] | IC50 (Itk) [µM] | IC50 (EGFR) [µM] | IC50 (ErbB2) [µM] | IC50 (Kdr) [µM] | IC50 (Flt-1) [µM] | IC50 (Tek) [µM] | IC50 (c-Met) [µM] | IC50 (AKT) [µM] | IC50 (IGFR-1) [µM] | IC50 (PDGFRB) [µM] | IC50 (Hck-1) [µM] | IC50 (ErbB4) [µM] | IC50 (Ret-1) [µM] | IC50 (FGFR1) [µM] | Compound |
| --- | --- | --- | --- | --- | --- | --- | --- | --- | --- | --- | --- | --- | --- | --- | --- | --- | --- | --- | --- |
| < 0.892 | 0.892 to 5.35 | 0.892 to 5.35 | > 10 | > 10 | 0.892 to 5.35 | > 10 | 5.35 to 7.8 | < 0.892 | 0.892 to 5.35 | 0.892 to 5.35 | 0.892 to 5.35 | > 10 | < 0.892 | 0.892 to 5.35 | > 10 | > 10 | < 0.892 | < 0.892 | CCN(CC)CCOc1ccc(Nc2ncnc(-n3c(N)nc4ccccc43)n2)cc1OC [Compound 652] |
| 0.746 to 4.48 | > 8.4 | > 8.4 | > 8.4 | > 8.4 | > 8.4 | 6.53 to 8.4 | > 8.4 | < 0.746 | > 8.4 | 4.48 to 6.53 | > 8.4 | > 8.4 | > 8.4 | < 0.746 | > 8.4 | > 8.4 | < 0.746 | < 0.746 | COc1cc(Nc2ncnc(-n3c(NCc4ccc(F)cc4Cl)nc4ccccc43)n2)cc(OC)c1OC [Compound 951] |
